Experimental data from patent US12157730B2, “Heteroaryl derivative, method for producing same, and pharmaceutical composition comprising same as effective component” (VORONOI INC., priority 2019, dated 2024).

Target: T1, Ba/F3 cell EGFR Exon20 ins NPH (Homo sapiens, UniProt P00533, INS773NPH)
T1 construct: expressed in transfected cells; host or cells: Ba/F3
Assay: Ba/F3 cell proliferation suppression, EGFR Exon20 ins NPH
Type: cell-based
Conditions: GI50 class; Ba/F3 cell line with NPH inserted at Exon20 of EGFR; 72 hours
Summary of the method: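 72 h compound exposure, 0.3 nM–50 um (12 points, 3:1 dilution in DMSO); viability by CellTiter-Glo luminescence. Ba/F3 medium: RPMI-1640, 10% FBS, 5 ng/ml IL-3, 1 ug/ml puromycin for transduced cells. GI50 vs control, n=3.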

Row | SMILES | Ba/F3 (NPH) Activity
1 | C=CC(=O)Nc1cc(Nc2cc(N3OCC[C@@H]3c3cccc(F)c3Cl)ncn2)c(OC)cc1N1CCC(N2CCN(C3CCC3)CC2)CC1 [Example 192, N-(5-((6-((R)-3-(2-chloro-3-fluorophenyl)isoxazolidine-2-yl)pyrimidine-4-yl)amino)-2-(4-(4-cyclobutylpiperazine-1-yl)piperidine-1-yl)-4-methoxyphenyl) acrylamide] | A (GI50 < 50 nM)
2 | C=CC(=O)Nc1cc(Nc2cc(N3OCC[C@@H]3c3ccccc3)ncn2)c(OC)cc1N1CCC(N2CC3CC2CN3C)CC1 (stereo partly drawn) [Example 52, N-(4-methoxy-2-(4-(5-methyl-2,5-diazabicyclo [2.2.1]heptane-2-yl)piperidine-1-yl)-5-((6-((R)-3-phenylisoxazolidine-2-yl)pyrimidine-1-yl)amino)phenyl) acrylamide] | A (GI50 < 50 nM)
3 | C=CC(=O)Nc1cc(Nc2cc(N3OCC[C@@H]3c3cccc(C#N)c3)ncn2)c(OC)cc1N1CCC(N2CCN(C3CC3)CC2)CC1 [Example 141, N-(5-((6-((R)-3-(3-cyanophenyl)isoxazolidine-2-yl)pyrimidine-4-yl)amino)-2-(4-(4-cyclopropylpiperazine-1-yl)piperidine-1-yl)-4-methoxyphenyl) acrylamide] | A (GI50 < 50 nM)
4 | C=CC(=O)Nc1cc(Nc2cc(N3OCC[C@@H]3c3c(F)ccc(F)c3F)ncn2)c(OC)cc1N1CCC(N2C[C@H]3C[C@@H]2CO3)CC1 [compound 641, N-(2-(4-((1R,4R)-2-oxa-5-azabicyclo[2.2.1]heptane-5-yl)piperidine-1-yl)-4-methoxy-5-((6-((R)-3-(2,3,6-trifluorophenyl)isoxazolidine-2-yl)pyrimidine-4-yl)amino)phenyl)acrylamide] | A (GI50 < 50 nM)
5 | C#Cc1cccc([C@H]2CCON2c2cc(Nc3cc(NC(=O)C=C)c(N4CCC(N5CCOCC5)CC4)cc3OC)ncn2)c1 [compound 650, N-(5-((6-((R)-3-(3-ethynylphenyl)isoxazolidine-2-yl)pyrimidine-4-yl)amino)-4-methoxy-2-(4-morpholinopiperidine-1-yl)phenyl)acrylamide] | A (GI50 < 50 nM)
6 | C=CC(=O)Nc1cc(Nc2cc(N3OCC[C@@H]3c3ccc(F)cc3F)ncn2)c(OC)cc1N1CCC(N2CCN(C)CC2)CC1 [compound 352, N-(5-((6-((R)-3-(2,4-difluorophenyl)isoxazolidine-2-yl)pyrimidine-4-yl)amino)-4-methoxy-2-(4-(4-methylpiperazine-1-yl)piperidine-1-yl)phenyl) acrylamide] | A (GI50 < 50 nM)
7 | C=CC(=O)Nc1cc(Nc2cc(N3OCC[C@@H]3Cc3cccc(Cl)c3Cl)ncn2)c(OC)cc1N1CCC(N2C[C@@H]3C[C@H]2CO3)CC1 [compound 1012, N-(2-(4-((1S,4S)-2-oxa-5-azabicyclo [2.2.1]heptane-5-yl)piperidine-1-yl)-5-((6-((S)-3-(2,3-dichlorobenzyl)isoxazolidine-2-yl)pyrimidine-4-yl)amino)-4-methoxyphenyl) acrylamide] | A (GI50 < 50 nM)
8 | C=CC(=O)Nc1cc(Nc2cc(N3OCC[C@@H]3c3cc(F)cc(F)c3)ncn2)c(OC)cc1N1CCC(N2CCN(C(C)C)CC2)CC1 [Example 265, N-(5-((6-((R)-3-(3,5-difluorophenyl)isoxazolidine-2-yl)pyrimidine-4-yl)amino)-2-(4-(4-isopropylpiperazine-1-yl)piperidine-1-yl)-4-methoxyphenyl) acrylamide] | A (GI50 < 50 nM)
9 | C=CC(=O)Nc1cc(Nc2cc(N3OCC[C@@H]3Cc3cccc(Cl)c3Cl)ncn2)c(OC)cc1N1CCC(N2CCN(C3CC3)[C@@H](C)C2)CC1 [compound 981, N-(2-(4-((S)-4-cyclopropyl-3-methylpiperazine-1-yl)piperidine-1-yl)-5-((6-((S)-3-(2,3-dichlorobenzyl)isoxazolidine-2-yl)pyrimidine-4-yl)amino)-4-methoxyphenyl) acrylamide] | A (GI50 < 50 nM)
10 | C=CC(=O)Nc1cc(Nc2cc(N3OCC[C@@H]3c3ccc(F)c(Cl)c3)ncn2)c(OC)cc1N1CCC(N2CCN(C3CC3)[C@@H](C)C2)CC1 [Example 177, N-(5-((6-((R)-3-(3-chloro-4-fluorophenyl)isoxazolidine-2-yl)pyrimidine-4-yl)amino)-2-(4-((S)-4-cyclopropyl-3-methylpiperazine-1-yl)piperidine-1-yl)-4-methoxyphenyl) acrylamide] | A (GI50 < 50 nM)

Next, values leading:

Row | Ba/F3 (NPH) Activity | SMILES
11 | A (GI50 < 50 nM) | C=CC(=O)Nc1cc(Nc2cc(N3OCC[C@@H]3c3cccc(C(F)(F)F)c3)ncn2)c(OC)cc1N1CCC(N2CCOCC2)CC1 [compound 504, N-(4-methoxy-2-(4-morpholinopiperidine-1-yl)-5-((6-((R)-3-(3-(trifluoromethyl)phenyl)isoxazolidine-2-yl)pyrimidine-4-yl)amino)phenyl)acrylamide]
12 | C (500 nM ≤ GI50 < 5000 nM) | C=CC(=O)Nc1cc(Nc2cc(N3OCC[C@@H]3c3ccc(C)nc3)ncn2)c(OC)cc1N1CCC(N2C[C@H]3C[C@@H]2CN3C)CC1 [Example 234, N-(4-methoxy-2-(4-((1R,4R)-5-methyl-2,5-diazabicyclo[2.2.1]heptane-2-yl)piperidine-1-yl)-5-((6-((R)-3-(6-methylpyridine-3-yl)isoxazolidine-2-yl)pyrimidine-4-yl)amino)phenyl)acrylamide]
13 | A (GI50 < 50 nM) | C=CC(=O)Nc1cc(Nc2cc(N3OCC[C@@H]3c3cccc(Cl)c3F)ncn2)c(OC)cc1N1CCC(N2CCO[C@@H](C)C2)CC1 [compound 356, N-(5-((6-((R)-3-(3-chloro-2-fluorophenyl)isoxazolidine-2-yl)pyrimidine-4-yl)amino)-4-methoxy-2-(4-((S)-2-methylmorpholino)piperidine-1-yl)phenyl) acrylamide]
14 | B (50 nM ≤ GI50 < 500 nM) | C=CC(=O)Nc1cc(Nc2cc(N3OCC[C@@H]3c3ccc4ccccc4c3)ncn2)c(OC)cc1N1CCO[C@@H](C)C1 [compound 659, N-(4-methoxy-2-((S)-2-methylmorpholino)-5-((6-((R)-3-(naphthalene-2-yl)isoxazolidine-2-yl)pyrimidine-4-yl)amino)phenyl)acrylamide]
15 | A (GI50 < 50 nM) | C=CC(=O)Nc1cc(Nc2cc(N3OCC[C@@H]3c3cc(F)cc(F)c3)ncn2)c(OC)cc1N1CCC(N2CCOC[C@H]2C)CC1 [compound 842, N-(5-((6-((R)-3-(3,5-difluorophenyl)isoxazolidine-2-yl)pyrimidine-4-yl)amino)-4-methoxy-2-(4-((R)-3-methylmorpholino)piperidine-1-yl)phenyl) acrylamide]
16 | A (GI50 < 50 nM) | C=CC(=O)Nc1cc(Nc2cc(N3OCC[C@@H]3c3cc(F)ccc3F)ncn2)c(OC)cc1N1CCC(N2CCO[C@@H](C)C2)CC1 [compound 821, N-(5-((6-((R)-3-(2,5-difluorophenyl)isoxazolidine-2-yl)pyrimidine-4-yl)amino)-4-methoxy-2-(4-((S)-2-methylmorpholino)piperidine-1-yl)phenyl) acrylamide]
17 | B (50 nM ≤ GI50 < 500 nM) | C=CC(=O)Nc1cc(Nc2cc(N3OCC[C@@H]3Cc3ccc(C(F)(F)F)cc3)ncn2)c(OC)cc1N1CCC(N2CCN(C3CC3)CC2)CC1 [compound 1050, N-(2-(4-(4-cyclopropylpiperazine-1-yl)piperidine-1-yl)-4-methoxy-5-((6-((S)-3-(4-(trifluoromethyl)benzyl)isoxazolidine-2-yl)pyrimidine-4-yl)amino)phenyl) acrylamide]
18 | A (GI50 < 50 nM) | C#Cc1cccc([C@H]2CCON2c2cc(Nc3cc(NC(=O)C=C)c(N(C)CCN(C)C)cc3OC)ncn2)c1 [compound 616, N-(2-((2-(dimethylamino)ethyl) (methyl)amino)-5-((6-((R)-3-(3-ethynylphenyl)isoxazolidine-2-yl)pyrimidine-4-yl)amino)-4-methoxyphenyl) acrylamide]
19 | A (GI50 < 50 nM) | C=CC(=O)Nc1cc(Nc2cc(N3OCC[C@@H]3c3ccc(F)c(Cl)c3)ncn2)c(OC)cc1N1CCC(N2CCC3(CC2)CC3)CC1 [compound 872, N-(2-(4-(6-azaspiro [2.5]octan-6-yl)piperidine-1-yl)-5-((6-((R)-3-(3-chloro-4-fluorophenyl)isoxazolidine-2-yl)pyrimidine-4-yl)amino)-4-methoxyphenyl) acrylamide]
20 | A (GI50 < 50 nM) | C=CC(=O)Nc1cc(Nc2cc(N3OCC[C@@H]3c3cc(F)cc(F)c3)ncn2)c(OC)cc1N1CCC(N2CCN(C3CCC3)CC2)CC1 [Example 68, N-(2-(4-(4-cyclobutylpiperazine-1-yl)piperidine-1-yl)-5-((6-((R)-3-(3,5-difluorophenyl)isoxazolidine-2-yl)pyrimidine-4-yl)amino)-4-methoxyphenyl) acrylamide]
21 | A (GI50 < 50 nM) | C=CC(=O)Nc1cc(Nc2cc(N3OCC[C@@H]3Cc3cccc(Cl)c3C)ncn2)c(OC)cc1N1CCC(N2CCN(C3CC3)[C@H](C)C2)CC1 [compound 1027, N-(5-((6-((S)-3-(3-chloro-2-methylbenzyl)isoxazolidine-2-yl)pyrimidine-4-yl)amino)-2-(4-((R)-4-cyclopropyl-3-methylpiperazine-1-yl)piperidine-1-yl)-4-methoxyphenyl) acrylamide]
22 | A (GI50 < 50 nM) | C=CC(=O)Nc1cc(Nc2cc(N3OCC[C@@H]3Cc3cccc(Cl)c3C)ncn2)c(OC)cc1N1CCC(N2CCN(C3CC3)[C@@H](C)C2)CC1 [compound 1028, N-(5-((6-((S)-3-(3-chloro-2-methylbenzyl)isoxazolidine-2-yl)pyrimidine-4-yl)amino)-2-(4-((S)-4-cyclopropyl-3-methylpiperazine-1-yl)piperidine-1-yl)-4-methoxyphenyl) acrylamide]
